Assay results published in the NIST ThermoML archive (doi:10.1016/j.tca.2015.06.017).
± gives the expanded uncertainty stated by the source.

Conditions: Liquid, Vibrating tube method

CCCCCCC [heptane]
mass density [kg/m3]
Conditions	283.15 K	288.15 K	293.15 K	298.15 K	303.15 K	308.15 K	313.15 K	318.15 K	323.15 K	328.15 K
100 kPa	692.57 ± 0.25	688.55 ± 0.25	684.19 ± 0.25	679.95 ± 0.25	675.68 ± 0.25	671.39 ± 0.25	667.06 ± 0.25	662.54 ± 0.25	658.32 ± 0.25	653.81 ± 0.25
2000 kPa	694.49 ± 0.27	690.28 ± 0.27	686.15 ± 0.27	682.02 ± 0.27	677.75 ± 0.27	673.45 ± 0.27	669.26 ± 0.27	664.87 ± 0.27	660.53 ± 0.28	656.27 ± 0.28
5000 kPa	697.06 ± 0.3	693.01 ± 0.3	688.99 ± 0.31	684.8 ± 0.31	680.76 ± 0.31	676.49 ± 0.31	672.35 ± 0.31	668.35 ± 0.31	664.05 ± 0.31	659.84 ± 0.32
7000 kPa	698.8 ± 0.33	694.77 ± 0.33	690.74 ± 0.33	686.68 ± 0.33	682.65 ± 0.33	678.48 ± 0.33	674.51 ± 0.34	670.32 ± 0.34	666.33 ± 0.34	661.99 ± 0.34
10000 kPa	701.2 ± 0.36	697.23 ± 0.36	693.41 ± 0.36	689.23 ± 0.37	685.52 ± 0.37	681.37 ± 0.37	677.42 ± 0.37	673.52 ± 0.37	669.41 ± 0.38	665.25 ± 0.38
20000 kPa	709.08 ± 0.47	705.18 ± 0.47	701.57 ± 0.48	697.65 ± 0.48	694.07 ± 0.48	690.12 ± 0.49	686.53 ± 0.49	682.85 ± 0.49	679.17 ± 0.5	675.25 ± 0.5
30000 kPa	716.12 ± 0.57	712.38 ± 0.58	708.99 ± 0.58	705.17 ± 0.59	701.86 ± 0.59	698.22 ± 0.6	694.65 ± 0.6	691.31 ± 0.6	687.64 ± 0.61	684.02 ± 0.61
40000 kPa	722.63 ± 0.67	719.01 ± 0.68	715.7 ± 0.68	712.11 ± 0.69	708.87 ± 0.69	705.32 ± 0.7	702.08 ± 0.71	698.89 ± 0.71	695.38 ± 0.72	691.84 ± 0.72
50000 kPa	728.63 ± 0.77	725.2 ± 0.77	722.03 ± 0.78	718.54 ± 0.79	715.5 ± 0.79	712.12 ± 0.8	708.98 ± 0.81	705.82 ± 0.81	702.5 ± 0.82	699.13 ± 0.83
60000 kPa	734.33 ± 0.86	731.01 ± 0.87	728.02 ± 0.87	724.73 ± 0.88	721.67 ± 0.89	718.41 ± 0.9	715.39 ± 0.9	712.36 ± 0.91	709.15 ± 0.92	706.05 ± 0.93
65000 kPa	736.99 ± 0.9	733.73 ± 0.91	730.72 ± 0.92	727.65 ± 0.93	724.56 ± 0.93	721.43 ± 0.94	718.32 ± 0.95	715.32 ± 0.96	712.32 ± 0.97	709.3 ± 0.97
